Series [1] relates to hind paw edema. In words: Adjuvant Arthritis Assay; Developing (percent inhibition of hind paw edema). Type of series: in vivo, female Lewis rats. Particulars: Rattus norvegicus, 96 h, once daily for 4 days in 0.25% methylcellulose, paw volumes on fifth day. The procedure: Anti-Inflammatory: This activity was evaluated via a modification of the Adjuvant Arthritis Assay (AA) described by S. Wong et al in "The Journal of Pharmacology and Experimental Therapeutics", Vol. 185. […] This assay measures the ability of the test compound to antogonize local edema, a characteristic of the inflammatory response. […] The left and right rear paws of female Lewis rats (Charles River Laboratories) weighing 160-180 grams each were measured by mercury displacement prior to injection (Day Zero). Adjuvant arthritis was induced in this rat colony by subcutaneous injection of Mycobacterium butyricum (0.75 mg in 0.1 ml light mineral oil, Fisher) using an automated Cornwall syringe. On days 11-15 post-adjuvant the injected animals with 0.25 to 0.75 ml. paw edema were selected and distributed evenly, according to edema size, into control and experimental groups of ten rats each. Vehicle control and drug treatments were assigned to the groups at random. The assay was performed using a variable dose level for each test compound per kilogram per day in 0.25% methylcellulose. vehicle. All animals were dosed once daily for 4 days and on the fifth day both hind paw volumes were again measured using mercury displacement. The hind paw edema was determined for each rat by subtracting the hind paw volume measured on Day Zero from the hind paw volume measured on the fifth day of the study. Group means were determined and the drug effect was calculated as percent inhibition of the hind paw edema according to the following equation: [formula] […] The known anti-inflammatory NAPROXEN was also tested for comparison purposes.

The test system of the next series is paw edema. In words: Adjuvant Arthritis Assay; Established (chronic anti-inflammatory and antiarthritic). Format: in vivo, rats. The conditions noted are these: Rattus norvegicus, 552 h, oral once daily on days 19-22, paw volumes day 23.
A further series deals with acetylcholine writhing. The experiment in a line: Acetylcholine Writhing Assay (analgesic). Format: in vivo, male CD-1 mice. The conditions noted are these: Mus musculus; oral, 45 min before intraperitoneal acetylcholine; writhes counted 10 minutes. The procedure: Analgesic: The "Acetylcholine Writhing Assay" (ACH) of collier et al [Nature: Vol. 204: page 1316 (1964)] was employed. In this study the test compounds were administered orally to mice and 45 minutes later the mice were injected with acetylcholine. The frequency of writhing was counted in each animal and the response elicited in the drug-treated mice was compared with the response of those given acetylcholine alone.
Analgesic activity was evaluated via the mouse acetylcholine writhing test using a modification of the procedure described by Collier, et al in Nature (New Biol.) Vol. 204; page 1316 (1964) and Br. J. Pharmacol, Chemother, Vol. 32: page 295 (1968). Each test group consisted of ten male CD-1 mice (Charles River Laboratories) weighing 18-28 grams each. Test compounds suspended in a mixture of 0.25% methylcellulose solution […] were administered orally by gavage and fort five minutes later the mice were injected intraperitoneally with acetylcholine (0.55 mg/ml in 0.25% methylcellulose). The number of writhes in each group of mice were counted for 10 minutes immediately following the injection of acetylcholine and the percent inhibition was calculated as follows: [formula] Four dose levels were used to calculate the ED50. of each test compounds.

The next series relates to yeast-induced fever. In words: Antipyretic Evaluation (yeast-induced fever). Format: in vivo, male Sprague-Dawley rats. Particulars: 300 mg/kg oral; Example 1 in olive oil, Example 2 in 0.25% methylcellulose; all decreases significant at p <0.05 (paired-samples Student's t-Test). The procedure:
Antipyretic: This activity was evaluated by creating a yeast-induced fever in rats according to a modified method of the procedure described by Loux e al in "Toxicology and Applied Pharmacology", Vol. 22: page 672 (1972). In this assay rats injected with yeast in distilled water were dosed with test compounds, aspirin (positive control) and a vehicle (negative control) and the observed differences in body temperature were analyzed statistically.
Antipyretic activity was evaluated using a modification of the test described by Loux et al, in Toxicology and Applied Pharmacology, 22:672(1972), that is, yeast-induced fever in rats. Each test group consisted of ten male Sprague-Dawley rats (Charles River Laboratories), weighing 180-225 grams each. Eighteen hours prior to compound administration the rats were weighed and body temperatures were recorded. Food was removed with water available ad libitum.
Each animal was injected subcutaneously into the central dorsal region with five (5.0) ml portions of a 15% (150 mg/1.0 ml) suspension of Fleischman's yeast in distilled water.
Test compounds suspended in 0.25% methylcellulose (0.25% MC) or olive oil were administered orally by gavage nineteen hours following the yeast injection. Body temperatures were taken and recorded one hour after compound administration. Aspirin (300 mg/kg) was the reference standard drug administered with each antipyretic study. The mean temperature of the compound-treated groups, positive control group (Aspirin) and negative control group (vehicle) were calculated at 18 hours and 20 hours. The data was analyzed statistically using a paired-samples Student's t-Test.

The conditions of series [2]: cited from G. Moore, U.S. Pat. No. 4,337,345; cited from earlier work.
Series [3] concerns hind paw edema. The experiment in a line: Adjuvant Arthritis Assay; Immunomodulatory. Particulars: 50 mg/kg oral, Day 5 to 9 inclusive; edema on Day 15. Type of series: in vivo, Lewis female rats. The procedure: Immunomodulatory: This activity was determined by using a Modified Adjuvant Assay procedure in which female rats were injected with Mycobacterium butyricum to induce hind paw edema. The test compounds were administered orally and the difference in volume between dosed and non-dosed paws was determined.
Lewis female rats were injected in the tail subcutaneously with Mycobacterium butyricum (0.75 mg in 0.1 ml light mineral oil, Fisher) on Day Zero. Prior to injection the volumes of the left and right rear paws were measured by mercury displacement. All rats were dosed orally with vehicle or test compounds on Day 5 to 9 inclusive. The volume of both hind paws were determined on Day 15 and the percent inhibitions were calculated based upon average edema on Day 15 relative to the edema mean in the control group.

The nature of the next series: LD50. Particulars: rat, in vivo, po.

As for `CN1OC/C(=C/c2cc(C(C)(C)C)c(O)c(C(C)(C)C)c2)C1=O` [Example 1 (Z-Isomer), 4-(3,5-di-tert-butyl-4-hydroxybenzylidene)-2-methyl-3-isoxazolidinone], the ED50 with hind paw edema [1] was 36 mg/kg.
Consider `COc1ccc2cc([C@H](C)C(=O)O)ccc2c1` [NAPROXEN, reference compound], for which the ED50 in the series on hind paw edema [1] came out at 28 mg/kg; in the series with paw edema, 28 mg/kg; in the series with acetylcholine writhing, 6.2 mg/kg.
Regarding `CC(=O)Oc1ccccc1C(=O)O` [Aspirin, reference compound], the “Change in Temperature, 18-20 Hour Period” value in the series on yeast-induced fever was -2.05 °C.
For `CC(C)(C)c1cccc(C(C)(C)C)c1O` [2,6-di-(tert-butyl)phenol], the anti-inflammatory activity entry in series [2] is reported as “absence of anti-inflammatory activity”.
On to `CC(C)(C)c1cc(S(=O)(=O)c2ccccc2)cc(C(C)(C)C)c1O` [2,6-di-(tert-butyl)-4-(phenylsulfonyl)phenol], for which, in series [2], the anti-inflammatory activity result is reported as “absence of anti-inflammatory activity”.
As to `CCCCCCCCc1cc(C(C)(C)C)c(O)c(C(C)(C)C)c1` [4-n-octyl-2,6-di-(tert-butyl)phenol], in series [2], the anti-inflammatory activity entry is on record as “absence of anti-inflammatory activity”.
As to `CC(C)(C)c1cc(C(=O)c2cc(C(=O)O)ccc2Cl)cc(C(C)(C)C)c1O` [4-(5-carboxy-2-chlorobenzoyl)-2,6-di-(tert-butyl)phenol], the anti-inflammatory activity entry in series [2] is reported as “absence of anti-inflammatory activity”.
Consider `CC(=O)c1cc(C(C)(C)C)c(O)c(C(C)(C)C)c1` [4-acetyl-2,6-(di-tert-butyl)phenol], for which, in series [2], the anti-inflammatory activity entry is listed as “absence of anti-inflammatory activity”.
On to `CC(C)(C)c1cc(C(N)=O)cc(C(C)(C)C)c1O` [4-carboxamido-2,6-di-(tert-butyl)phenol], for which, in series [2], the anti-inflammatory activity result is listed as “absence of anti-inflammatory activity”.
Regarding `CN1OCC(=Cc2cc(C(C)(C)C)c(O)c(C(C)(C)C)c2)C1=O` [Example 1, 4-(3,5-Di-tert-Butyl-4-Hydroxybenzylidene)-2-Methyl-3-Isoxazolidinone; E and Z Isomers], the ED50 with paw edema amounted to 44 mg/kg. In addition, the “Change in Temperature, 18-20 Hour Period” value in the series on yeast-induced fever is -1.33 °C. Also, the “% Inhibition” value in the series with hind paw edema [3] is listed as 43%. In “LD50”, this molecule displayed an LD50 greater than 1000 mg/kg.
Take `CN1OCCC(=Cc2cc(C(C)(C)C)c(O)c(C(C)(C)C)c2)C1=O` [Example 2, Dihydro-4-(3,5-Di-tert-Butyl-4-Hydroxybenzylidene)-2-Methyl-2H-1,2-Oxazin-3(4H)-one]: the ED50 with hind paw edema [1] is 7 mg/kg; with paw edema, 8 mg/kg; with acetylcholine writhing, 2.8 mg/kg. For the same molecule, in the series with yeast-induced fever, the “Change in Temperature, 18-20 Hour Period” value was -1.33 °C. Moreover, in the series with hind paw edema [3], the “% Inhibition” value came out at 39%. This molecule came in with an LD50 in the series “LD50” greater than 1000 mg/kg.
Take `CN1OC/C(=C\c2cc(C(C)(C)C)c(O)c(C(C)(C)C)c2)C1=O` [Example 1 (E-Isomer), 4-(3,5-di-tert-butyl-4-hydroxybenzylidene)-2-methyl-3-isoxazolidinone]: the results for the ED50 in the series on hind paw edema [1] and with acetylcholine writhing were 20 mg/kg and 18 mg/kg, respectively.
As for `CC(C)(C)c1cc(C(=O)c2ccccc2Cl)cc(C(C)(C)C)c1O` [4-(2-chlorobenzoyl)-2,6-di-(tert-butyl)phenol], in series [2], the anti-inflammatory activity result is reported as “absence of anti-inflammatory activity”.
In the case of `Cc1cc(C(C)(C)C)c(O)c(C(C)(C)C)c1` [3,5-di(tert-butyl)-4-hydroxytoluene], the anti-inflammatory activity result in series [2] is “little or no value as an anti-inflammatory agent”.

Values taken from US4892870A, “Oxaza heterocycles and pharmaceutical compositions containing same” (Biofor, Ltd., priority 1988, dated 1990).
